Legend:
[1] = test system: anti-TTX monoclonal antibody; format: binding
[2] = analogues purified from pufferfish liver; patch clamp
[3] = molecular target: T1, muscle-type α12βεδ nAChRs (Mus musculus, UniProt P02716+P04756+P20782); test: Nerve-evoked isometric contraction, block by cyclic imine toxins
T1 construct: skeletal muscle expressing α12βεδ nAChRs; from tissue; host or cells: isolated mouse phrenic-nerve-hemi-diaphragm muscle

CB1 receptors = molecular target: T2, CB1 receptors (Homo sapiens, UniProt P21554); test: Two-electrode voltage-clamp, CB1-GIRK1/2-RGS4 system in Xenopus laevis oocytes; format: cell-based; settings: GIRK1/2 currents induced by WIN55,212-2, Xenopus oocytes
T2 construct: expressed in transfected cells; host or cells: Xenopus laevis oocytes
T2 sequence (P21554 whole entry): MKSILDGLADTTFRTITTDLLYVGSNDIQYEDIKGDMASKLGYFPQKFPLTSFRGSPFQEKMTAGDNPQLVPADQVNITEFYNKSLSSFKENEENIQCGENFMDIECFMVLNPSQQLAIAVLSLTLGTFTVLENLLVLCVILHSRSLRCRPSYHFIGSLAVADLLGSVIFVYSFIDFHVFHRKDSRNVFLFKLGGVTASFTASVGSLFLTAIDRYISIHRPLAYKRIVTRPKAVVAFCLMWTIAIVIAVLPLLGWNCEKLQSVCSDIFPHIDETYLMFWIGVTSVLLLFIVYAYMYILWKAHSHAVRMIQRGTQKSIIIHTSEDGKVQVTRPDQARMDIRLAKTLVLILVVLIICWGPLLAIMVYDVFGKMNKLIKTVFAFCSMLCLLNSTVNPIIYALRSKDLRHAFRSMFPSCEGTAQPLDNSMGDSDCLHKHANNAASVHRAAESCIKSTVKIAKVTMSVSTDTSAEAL
From the text: (§1) Abstract: Cannabinoid receptors (CB1 and CB2) are promising targets for diverse diseases, such as pain, inflammation, and neurological diseases. However, only a few ligands of CB receptors have reached clinical application so far. In the present study, we focused on the venom of Stephanoconus snails and found an endocannabinoid-like molecule, oleoyl serotonin (OS), active on CB1 and CB2. To determine the effects of OS, CB1 and CB2 receptors were functionally expressed in Xenopus laevis oocytes, together with the G protein-coupled inwardly rectifier potassium channels (GIRK1/2), and a regulator of G protein signalling (RGS4). Ion currents were measured with a two-electrode voltage-clamp system. […] To the best of our knowledge, OS is the first venom-derived ligand modulating CB receptors. […]. To investigate the critical domains of the CB receptor for OS activity, we constructed a chimeric CB1/2 receptor by replacing the transmembrane domain V (TMV)-intracellular loop 3 (ICL3)-TMVI domain (TMV-ICL3-TMVI) of the CB2 receptor with that of the CB1 receptor. […] This study highlights the potential of animal venom components as a promising library for the discovery of novel CB receptor ligands.

CB2 receptors = molecular target: T3, CB2 receptors (Homo sapiens, UniProt P34972); test: Two-electrode voltage-clamp, CB2 with GIRK1/2 and RGS4 in Xenopus laevis oocytes; format: cell-based; settings: GIRK1/2, RGS4
T3 construct: expressed in transfected cells; host or cells: Xenopus laevis oocytes
T3 sequence (P34972 whole entry): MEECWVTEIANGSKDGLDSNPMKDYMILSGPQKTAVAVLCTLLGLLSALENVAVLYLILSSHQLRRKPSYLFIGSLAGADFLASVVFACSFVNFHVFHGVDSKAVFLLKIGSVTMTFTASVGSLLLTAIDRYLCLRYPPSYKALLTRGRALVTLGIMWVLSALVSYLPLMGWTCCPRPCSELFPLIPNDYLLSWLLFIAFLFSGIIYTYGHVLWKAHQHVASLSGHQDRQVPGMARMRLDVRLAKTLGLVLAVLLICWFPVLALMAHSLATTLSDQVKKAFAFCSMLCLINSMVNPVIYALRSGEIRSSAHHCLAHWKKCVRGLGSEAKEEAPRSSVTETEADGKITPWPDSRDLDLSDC
From the text: as §1

[4] = test system: serotonin, histamine, opioid and nicotinic receptors, TRP channels or voltage-gated sodium, potassium or calcium channels; test: Selectivity of OS on other receptors and channels; format: cell-based
mice = test: In vivo evaluation of OS on brain-related neurological functions
[5] = test system: isolated mouse phrenic-nerve-hemi-diaphragm muscle preparations; test: Nerve-evoked isometric contraction, reversal of CiTX neuromuscular block; settings: 100 µM, in continuous presence of GYM-A, PnTX-A, PnTX-G or PteTX-1
[6] = test system: mice injected with venoms; test: Recovery from neuroparalysis in mice injected with neurotoxic snake venoms; format: in vivo
From the text: (§2) Abstract: Envenomation by snakes is a major neglected human disease even though it affects millions of people with sequelae and kills hundreds of thousands of them. A large toll is taken by snakes that inject neurotoxic venoms capable of inducing complete degeneration of motor axon terminals with rapid development of a peripheral neuroparalysis with severe respiratory deficit. The major venom component causing this degeneration are presynaptic acting PLA2s that hydrolyse phospholipids in lysophospholipids and fatty acids that induce large entry of Ca^2+ into the neuronal cytosol. This leads to the activation of endogenous hydrolases that cause a complete degeneration of the motor axon terminals, which is followed by a regeneration program, only partially known in molecular terms. We recently identified two types of membrane receptors involved in the regeneration of the paralysed neuromuscular junction (NMJ). Here we report that this paralysis activates a proregenerative molecular axis, consisting of the CXCR4 receptor expressed at the stump of degenerated motor axon terminals and by the release of its ligand CXCL12α by surrounding Schwann cells. […]

[7] = From the text: as §2
human mitoTRPV1 = human mitoTRPV1 (Homo sapiens, UniProt Q8NER1); format: cell-based
human mitoTRPV1, sequence (Q8NER1 434-839): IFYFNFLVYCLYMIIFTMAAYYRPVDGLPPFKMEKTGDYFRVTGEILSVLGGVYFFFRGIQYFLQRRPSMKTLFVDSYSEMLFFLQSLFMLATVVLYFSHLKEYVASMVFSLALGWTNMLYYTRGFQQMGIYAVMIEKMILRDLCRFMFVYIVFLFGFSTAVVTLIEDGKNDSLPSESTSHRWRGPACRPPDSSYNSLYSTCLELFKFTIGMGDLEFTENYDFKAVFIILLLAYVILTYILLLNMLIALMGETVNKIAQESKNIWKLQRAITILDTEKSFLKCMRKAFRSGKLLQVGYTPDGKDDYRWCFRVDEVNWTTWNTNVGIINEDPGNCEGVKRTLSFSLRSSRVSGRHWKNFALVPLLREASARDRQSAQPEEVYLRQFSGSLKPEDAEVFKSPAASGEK

T1 sequence (P09690 24-501): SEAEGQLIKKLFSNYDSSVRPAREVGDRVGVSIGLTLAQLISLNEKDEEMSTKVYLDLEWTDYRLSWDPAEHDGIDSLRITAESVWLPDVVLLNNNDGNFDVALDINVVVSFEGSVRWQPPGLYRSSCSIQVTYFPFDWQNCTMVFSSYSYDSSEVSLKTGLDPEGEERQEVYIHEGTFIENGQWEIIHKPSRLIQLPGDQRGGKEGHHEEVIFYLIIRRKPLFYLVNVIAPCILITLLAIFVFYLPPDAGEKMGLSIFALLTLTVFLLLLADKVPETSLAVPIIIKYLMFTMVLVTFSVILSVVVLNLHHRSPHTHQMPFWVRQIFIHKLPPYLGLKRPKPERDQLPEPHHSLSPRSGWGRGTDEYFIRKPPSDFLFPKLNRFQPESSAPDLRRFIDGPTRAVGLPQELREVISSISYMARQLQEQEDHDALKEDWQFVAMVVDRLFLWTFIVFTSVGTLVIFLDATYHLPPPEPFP
T1 sequence (P02716 25-520): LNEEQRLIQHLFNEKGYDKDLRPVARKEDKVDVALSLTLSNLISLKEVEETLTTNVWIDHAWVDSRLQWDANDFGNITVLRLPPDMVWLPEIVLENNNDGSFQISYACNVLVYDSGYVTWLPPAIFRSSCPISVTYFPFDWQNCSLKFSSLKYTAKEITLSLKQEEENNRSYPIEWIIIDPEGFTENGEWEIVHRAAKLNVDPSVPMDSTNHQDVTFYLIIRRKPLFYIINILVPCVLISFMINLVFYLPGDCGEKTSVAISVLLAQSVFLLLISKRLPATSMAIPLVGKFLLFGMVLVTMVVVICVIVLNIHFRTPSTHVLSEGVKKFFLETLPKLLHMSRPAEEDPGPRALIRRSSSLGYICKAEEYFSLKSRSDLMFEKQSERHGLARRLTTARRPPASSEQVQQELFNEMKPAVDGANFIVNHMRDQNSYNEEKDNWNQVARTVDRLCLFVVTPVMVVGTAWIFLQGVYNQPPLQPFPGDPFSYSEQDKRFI
T1 sequence (P04756 21-457): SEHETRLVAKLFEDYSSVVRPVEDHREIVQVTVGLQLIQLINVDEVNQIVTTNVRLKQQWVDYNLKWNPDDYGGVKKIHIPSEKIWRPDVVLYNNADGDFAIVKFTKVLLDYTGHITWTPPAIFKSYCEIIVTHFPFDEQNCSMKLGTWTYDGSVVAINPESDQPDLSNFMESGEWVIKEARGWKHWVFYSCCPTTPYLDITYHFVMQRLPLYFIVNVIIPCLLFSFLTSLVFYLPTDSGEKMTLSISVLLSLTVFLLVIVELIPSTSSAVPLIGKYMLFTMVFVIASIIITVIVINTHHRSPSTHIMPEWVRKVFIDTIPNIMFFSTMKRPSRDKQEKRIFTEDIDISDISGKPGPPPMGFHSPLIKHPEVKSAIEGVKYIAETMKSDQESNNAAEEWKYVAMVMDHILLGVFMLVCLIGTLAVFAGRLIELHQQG
T1 sequence (P20782 21-493): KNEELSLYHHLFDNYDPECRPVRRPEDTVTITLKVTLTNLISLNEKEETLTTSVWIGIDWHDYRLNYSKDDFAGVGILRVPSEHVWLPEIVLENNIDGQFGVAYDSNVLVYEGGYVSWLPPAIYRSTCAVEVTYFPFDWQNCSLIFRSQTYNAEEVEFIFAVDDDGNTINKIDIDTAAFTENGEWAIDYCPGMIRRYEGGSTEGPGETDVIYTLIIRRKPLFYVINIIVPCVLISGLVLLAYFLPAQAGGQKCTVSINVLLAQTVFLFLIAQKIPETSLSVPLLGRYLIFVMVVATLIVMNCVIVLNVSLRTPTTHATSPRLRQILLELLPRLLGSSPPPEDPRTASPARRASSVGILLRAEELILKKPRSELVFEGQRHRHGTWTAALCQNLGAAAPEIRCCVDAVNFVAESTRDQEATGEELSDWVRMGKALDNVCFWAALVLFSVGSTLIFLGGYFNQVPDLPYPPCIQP

Compound: 5,6,11-trideoxyTTX
- cross-reactivity (cross-reactivity factors, CRFs) [1]: lower
- toxicity (toxicity equivalency factors, TEFs) [2]: lower

Compound: C=C1CCCC2=NC[C@H](C)[C@@H](C)C[C@@]23CCC(C(=O)O)=C[C@@H]3[C@@H]2O[C@]3(C[C@H]4CCC[C@@]5(CC[C@@]6(O[C@@H](CC[C@@]6(C)O)C1)O5)O4)C[C@@H](C)[C@@H](O)[C@H]2O3 [PnTX-A]
- type of inhibition of α12βεδ nAChRs [3]: competitive and reversible inhibitors

Compound: 5,11-dideoxyTTX
- cross-reactivity (cross-reactivity factors, CRFs) [1]: lower

Compound: C=CC1=C[C@@H]2[C@@H]3O[C@]4(C[C@H]5CCC[C@@]6(CC[C@@]7(O[C@@H](CC[C@@]7(C)O)CC(=C)CCCC7=NC[C@H](C)[C@@H](C)C[C@@]72CC1)O6)O5)C[C@@H](C)[C@@H](O)[C@H]3O4 [PnTX-G]
- type of inhibition of α12βεδ nAChRs [3]: competitive and reversible inhibitors

Compound: CCCCCCCC/C=C\CCCCCCCC(=O)NCCc1c[nH]c2ccc(O)cc12 [OS, oleoyl serotonin]
- mode of action on CB1 receptors (CB1 receptors): competitive antagonist
- mode of action on CB2 receptors (CB2 receptors): non-competitive blocker
- activity on other receptors and channels [4]: does not show significant activity
- effect on brain-related neurological functions (mice): anxiolytic effect

Compound: Nc1ccncc1N [3,4-DAP, 3,4-Diaminopyridine]
- reversal of neuromuscular block caused by the CiTX [5]: completely reverses

Compound: CC1=C[C@@H](C2=C(C)[C@@H]3/C=C(\C)[C@@H](O)CC[C@@H]4C[C@@H](C)[C@@H](O4)/C(C)=C/CCC4=NCCC[C@@]43CC2)OC1=O [GYM-A]
- type of inhibition of α12βεδ nAChRs [3]: competitive and reversible inhibitors

Compound: CCCn1nc(C(=O)N2CCCCC2)c2c1CCC(NCCc1ccncc1)C2 (centres unmarked) [NUCC-390]
- time of recovery from neuroparalysis ([6]; determined by imaging, electrophysiological methods and lung ventilation): shortens the time of recovery from neuroparalysis
- efficacy in mice injected with venoms ([6]; venoms of three Bungarus species, Oxyuranus scutellatus, Micrurus nigrocinctus, Vipera ammodytes and V. aspis): very effective
- blood brain barrier crossing [7]: does not cross the blood brain barrier
- toxicity [7]: non-toxic

Compound: C=C(C)[C@]12C[C@@H](C)[C@@]34O[C@](Cc5ccccc5)(O[C@@H]1[C@@H]3C=C(COC(=O)Cc1ccc(O)c(OC)c1)C[C@]1(O)C(=O)C(C)=C[C@@H]41)O2 [RTX, resiniferatoxin]
- mitochondrial Ca2+ efflux (human mitoTRPV1): enhanced a Ca^2+ efflux from the mitochondria
- mitochondrial temperature (human mitoTRPV1): significant reduction in the mitochondrial temperature
